# Laboratory results taken from US9962427B2, “Treatment of right ventricular dysfunction due to pressure overload” (OTTAWA HOSPITAL RESEARCH INSTITUTE, priority 2016, dated 2018).
# Experiments:
# [1] = test system: Mef2; test: Mef2 luciferase reporter in primary neonatal cardiomyocytes; type: cell-based; conditions: hCT1 0.5 nM; for Mef2 activation after 24 hrs: PE 100 μM, PAC-1 25 μM
# Experimental: FIGS. 6A, 6B, and 6C. Stimulation with hCT1 causes sustained activation of NF-κB and Stat3 with limited activation of Mef2, as well as limited Nfat activation; the latter two indices are distinct expression patterns from pathologic hypertrophic stimulation. FIG. 6A Primary neonatal cardiomyocytes were transfected with luciferase reporter plasmids (NF-κB or Mef2), as indicators of hypertrophic activity. Luciferase activity was measured after treatments for 24 hrs with: hCT1 (0.5 nM), PE (100 μM), or procaspase 3 activating compound 1, PAC-1 (25 μM) (left). Treatments at early timepoints (30 min, 1 hr, and 3 hr) were also conducted for hCT1 (right). FIG. 6B Primary neonatal cardiomyocytes were transfected with a luciferase reporter plasmid for Stat3. Luciferase activity was measured after treatments for 24 hrs with: hCT1 (0.5 nM), PE (100 μM), or procaspase 3 activating compound 1, PAC-1 (25 μM) (left) and at earlier time points (right). FIG. 6C Primary neonatal cardiomyocytes were infected with a luciferase-based Nfat reporter Adenovirus (Nfat-AdV). Luciferase activity was measured after treatments for 24 hrs with: hCT1 (0.5 nM), PE (100 μM), or procaspase 3 activating compound 1, PAC-1 (25 μM) (left) and at earlier time points (right)
# The signaling pathways that CT-1 engages in mediating physiologic adaptive compensatory remodeling were examined. The applicants predicted that cardiomyocyte adaptive remodeling mediated by CT-1 results (in part) from the induction of a specific transcriptional program, which is distinct from that of pathologic hypertrophic response. To address this hypothesis, the applicants tested the activity of two well-known transcription factor families that have been linked to both physiologic and pathologic cardiomyocyte growth, the Mef2 (Kolodziejczyk et al. 1999 Curr Biol. 9, 1203-1206; Kim et al. 2008, J Clin Invest. 118, 124-132.) and the NF-κB family (Gordon et al. 2011, Circ Res. 108, 1122-1132). Primary neonatal cardiomyocytes were transfected with luciferase reporter plasmids (NF-κB and Mef2) to be used as a read out of transcriptional activity. Luciferase activity was determined after treatments for 24 hrs with: hCT1 (0.5 nM), PE (100 μM), or procaspase 3 activating compound 1, PAC-1 (25 μM). […] This pattern of transcription factor activation was distinct from that induced by PE and by the caspase 3 specific activating compound PAC-1.
# [2] = test system: rats; test: In vivo growth reversal analysis (ECHO, HW:BW, CD31 capillary density) after 2 week delivery and follow-on; set-up: species or system rat; conditions: for ventricle wall thickness at 2 weeks: CT-1 6 μg/kg/hr or PE 10 mg/kg/day for 2 weeks
# From the text: FIGS. 3A, 3B, and 3C. […] Arrows (in upper panels) point to myocardial wall (RVLW). Dotted lines (in lower panels) show inner ventricle chambers.
# FIGS. 4A and 4B. Beneficial/physiologic cardiac adaptive compensation and reversion to baseline cardiac dimensions is observed upon 2 weeks of hCT1 administration in vivo followed by hCT1 withdrawal for 4 weeks. Identical follow-on procedure and analysis as conducted in FIG. 3 above. FIG. 4A Whole hearts and Hematoxylin & Eosin (H & E) stained sections and quantification of the heart weight to body weight (HW:BW) ratio 6 weeks post-treatment with hCT1 or PE.
# CT-1 was tested in vivo to determine whether its administration would induce a myocardial adaptive remodeling characteristic of physiologic compensation (FIGS. 3A, 3B, and 3C). Osmotic minipumps containing PBS control (Ctrl) or hCT1 (6 μg/kg/hr) or Isoproterenol (ISO, 1 mg/kg/day) were implanted subcutaneously in rats. ISO is a beta-adrenergic receptor agonist and continuous infusion with ISO in rats is known to induce pathological cardiac hypertrophy and cardiomyocyte damage (in both the right and left ventricles) which progresses to heart failure (Morisco et al (2001) J Mol Cell Cardiol 33:561-573 and Grimm et al (1998) Cardiovascular Research 37:91-100). After 2 weeks of treatment, M-mode ECHO analysis was used to assess myocardial structure/function (FIG. 3A). In this model, an increased right ventricle lateral wall (RVLW) thickness indicates the presence of myocardiocytes growth, and an increased ratio of the right to left ventricle internal diameters (RVID/LVID) is an indicator of pathologic hypertrophy. An increased RVLW thickness but constant or reduced RVID:LVID ratio is an indicator of adaptive compensatory RV remodeling. Both hCT1 and ISO induced a significant increase in RVLW thickness (12% and 32% fold increase, respectively) compared to control rats (n=3; * and **, P<0.05). […] An in vivo growth reversal analysis was also conducted. Following a 2 week delivery of CT-1 protein (6 μg/kg/hr) or PE (10 mg/kg/day) as the pathologic control in this case, animals were then assessed for cardiac structure/function at a 6 week follow-on period. […] Collectively, these studies support the contention that CT-1 elicits a reversible physiologic cardiac adaptive compensation.
# [3] = test system: primary neonatal cardiomyocytes; test: In vitro reversion of cardiomyocyte hypertrophy after removal of stimulus; type: cell-based; conditions: for myocyte hypertrophy (cell area) after removal of stimulus: 2 day treatment, then 4 days serum-free media (Day 6); for cardiomyocyte cell size after 2 days of stimulation compared to control: PE 100 μM or hCT1 0.5 nM, Day 2
# Experimental: FIGS. 2A and 2B. hCT1 induces physiologic adaptive compensation in vitro with reversion to a normal cardiomyocyte phenotype upon removal of hCT1 stimulation.
# The morphological effects of CT-1 in an in vitro reversion setting (FIGS. 2A and 2B) were explored. Primary neonatal cardiomyocytes were stimulated for 2 days with phenylephrine (PE, 100 μM) or hCT1 (0.5 nM) followed by removal of the stimulus for 4 days: i.e. replenished with serum-free (SF) media. Cells were imaged at Day 0 and Day 2 of stimulation; and at Day 6 (4 days post-treatment). […] The population frequencies of L:W ratios of cardiomyocytes stimulated as above were examined (FIG. 2B). […] However, upon treatment with CT-1, only ˜20% of cardiomyocytes display a L:W ratio of 1.0 to 2.0 with the remaining cardiomyocytes showing an increased shift between 3.0 and 9.0 indicating eccentric growth. […] These observations indicate that although there is not complete penetrance of the eccentric growth (presumably due to the dosage and timing of CT-1 stimulation used), CT-1 causes an eccentric and reversible cardiomyocyte growth similar to what is seen during RV adaptive compensation, which is distinct from the concentric growth observed with PE which models pathological hypertrophic changes.
# [4] = 2 week delivery, 6 week follow-on
Molecule,Mef2 activation after 24 hrs [1],"RVID/LVID ratio at 6 weeks post-treatment compared to control rats [2, 4]","heart weight to body weight ratio at 6 weeks post-treatment [2, 4]","wall thickness / cardiac dimensions at 6 weeks post-treatment [2, 4]","cardiac capillary density (CD31 immunostained right ventricle sections) ([2]; 6 weeks post-treatment, compared to CT-1 treated and control animals)",ventricle wall thickness at 2 weeks [2],myocyte hypertrophy (cell area) after removal of stimulus [3],cardiomyocyte cell size after 2 days of stimulation compared to control [3],Mef2 luciferase activity at 1 hr and 3 hr [1],L:W ratio population frequency after removing stimulation ([3]; 4 days after removal),"proportion of cardiomyocytes with L:W ratio of 1.0 to 2.0 ([3]; upon treatment (2 days), control ~60%) [%]"
"CNC[C@H](O)c1cccc(O)c1 [PE, Phenylephrine]",significant activation of Mef2,maintained their increased RVID/LVID ratio,increased heart weight to body weight ratio,retaining the substantial increase in wall thickness,significant decrease in cardiac capillary density,increase in (both) ventricle wall thickness,remained hypertrophied,increase in cardiomyocyte cell size,–,–,–
"hCT1: Recombinant human CT1 protein; 201 amino acid sequence, GenBank Accession Nos AAD12173 and AAA85229 (human) (protein, UniProt Q16619 1-201, looked up) Cardiotrophin-1: MSRREGSLEDPQTDSSVSLLPHLEAKIRQTHSLAHLLTKYAEQLLQEYVQLQGDPFGLPSFSPPRLPVAGLSAPAPSHAGLPVHERLRLDAAALAALPPLLDAVCRRQAELNPRAPRLLRRLEDAARQARALGAAVEALLAALGAANRGPRAEPPAATASAASATGVFPAKVLGLRVCGLYREWLSRTEGDLGQLLPGGSA",only NF-κB transcriptional activity was sustained,–,–,complete return to baseline cardiac dimensions for wall thickness,–,increase in (both) ventricle wall thickness,reversion of the myocyte hypertrophy,increase in cardiomyocyte cell size,significant activation,reversion of L:W ratio occurs,~20
